Test system: MV-4-11 cells
Test: Gene expression microarray analysis (Affymetrix PrimeView) and GSEA
Type: cell-based, human
Design: RFU PODN (11730768_x_at) / Fold change /veh PODN (11730768_x_at) / RFU LINC00158 (11744669_a_at) / Fold change /veh LINC00158 (11744669_a_at) / RFU DUSP10 (11751237_a_at) / Fold change /veh DUSP10 (11751237_a_at) / RFU ID3 (11757404_x_at) / Fold change /veh ID3 (11757404_x_at) / RFU PLEKHG5 (11737974_s_at) / Fold change /veh PLEKHG5 (11737974_s_at) / RFU LRRC4B (11730491_at) / Fold change /veh LRRC4B (11730491_at) / RFU GIMAP4 (11747438_a_at) / Fold change /veh GIMAP4 (11747438_a_at) / RFU KRT8 (11758183_x_at) / Fold change /veh KRT8 (11758183_x_at) / RFU CNN1 (11734310_a_at) / Fold change /veh CNN1 (11734310_a_at) / RFU VPS37D (11726825_at) / Fold change /veh VPS37D (11726825_at) / RFU C10orf10 (11716522_x_at) / Fold change /veh C10orf10 (11716522_x_at) / RFU KIR2DL2 /// KIR2DL4 /// KIR2DL5A /// KIR2DL5B /// KIR2DS1 /// KIR2DS2 /// KIR2DS3 /// KIR2DS4 /// KIR3DL3 /// KIR3DL3 /// KIR3DS1 (11738374_at) / Fold change /veh KIR2DL2 /// KIR2DL4 /// KIR2DL5A /// KIR2DL5B /// KIR2DS1 /// KIR2DS2 /// KIR2DS3 /// KIR2DS4 /// KIR3DL3 /// KIR3DL3 /// KIR3DS1 (11738374_at) / RFU C1QL1 (11718748_at) / Fold change /veh C1QL1 (11718748_at) / RFU TMPRSS4 (11747572_a_at) / Fold change /veh TMPRSS4 (11747572_a_at) / RFU HAMP (11756126_x_at) / Fold change /veh HAMP (11756126_x_at) / RFU RNFT2 (11725882_a_at) / Fold change /veh RNFT2 (11725882_a_at) / RFU NR4A2 (11747474_a_at) / Fold change /veh NR4A2 (11747474_a_at) / RFU ABCC12 (11746883_a_at) / Fold change /veh ABCC12 (11746883_a_at) / RFU TMEM136 (11760407_x_at) / Fold change /veh TMEM136 (11760407_x_at) / RFU CLDN22 /// WWC2 (11732394_at) / Fold change /veh CLDN22 /// WWC2 (11732394_at) / RFU HLA-DPB1 (11760878_x_at) / Fold change /veh HLA-DPB1 (11760878_x_at) / RFU SPINT1 (11716480_a_at) / Fold change /veh SPINT1 (11716480_a_at) / RFU GAP43 (11754022_s_at) / Fold change /veh GAP43 (11754022_s_at) / RFU A4GNT (11735810_at) / Fold change /veh A4GNT (11735810_at) / RFU PRB3 (11715151_x_at) / Fold change /veh PRB3 (11715151_x_at) / RFU TUBB4B (11761932_at) / Fold change /veh TUBB4B (11761932_at) / RFU CAPN14 (11732068_a_at) / Fold change /veh CAPN14 (11732068_a_at) / RFU TMCC2 (11721928_a_at) / Fold change /veh TMCC2 (11721928_a_at) / RFU IRGQ (11745062_a_at) / Fold change /veh IRGQ (11745062_a_at) / RFU FAM174B (11720279_a_at) / Fold change /veh FAM174B (11720279_a_at) / RFU TMPRSS4 (11748680_a_at) / Fold change /veh TMPRSS4 (11748680_a_at) / RFU FAM212B (11763350_a_at) / Fold change /veh FAM212B (11763350_a_at) / RFU PLEKHG5 (11743358_a_at) / Fold change /veh PLEKHG5 (11743358_a_at) / RFU ZSCAN30 (11745921_a_at) / Fold change /veh ZSCAN30 (11745921_a_at) / RFU CMKLR1 (11741424_a_at) / Fold change /veh CMKLR1 (11741424_a_at) / RFU LOC101060620 /// MAPK8IP1 (11723275_at) / Fold change /veh LOC101060620 /// MAPK8IP1 (11723275_at) / RFU SPTSSB (11747773_x_at) / Fold change /veh SPTSSB (11747773_x_at) / RFU PRSS12 (11739890_at) / Fold change /veh PRSS12 (11739890_at) / RFU BIN1 (11741810_x_at) / Fold change /veh BIN1 (11741810_x_at) / RFU WNT11 (11732464_a_at) / Fold change /veh WNT11 (11732464_a_at) / RFU C10orf10 (11716521_a_at) / Fold change /veh C10orf10 (11716521_a_at) / RFU C5orf56 (11738089_at) / Fold change /veh C5orf56 (11738089_at) / RFU CYB561 (11721691_x_at) / Fold change /veh CYB561 (11721691_x_at) / RFU ANKRD19P (11752326_a_at) / Fold change /veh ANKRD19P (11752326_a_at) / RFU OR2T12 /// OR2T33 /// OR2T8 (11738714_s_at) / Fold change /veh OR2T12 /// OR2T33 /// OR2T8 (11738714_s_at) / RFU VCAN (11748164_a_at) / Fold change /veh VCAN (11748164_a_at) / RFU JSRP1 (11732532_at) / Fold change /veh JSRP1 (11732532_at) / RFU KRTAP10-11 (11738290_x_at) / Fold change /veh KRTAP10-11 (11738290_x_at) / RFU MYO3A (11730013_a_at) / Fold change /veh MYO3A (11730013_a_at) / RFU EBF3 (11725865_a_at) / Fold change /veh EBF3 (11725865_a_at) / RFU CAMK2N1 (11719241_x_at) / Fold change /veh CAMK2N1 (11719241_x_at) / RFU C5orf56 (11738088_a_at) / Fold change /veh C5orf56 (11738088_a_at) / RFU OLFML3 (11715873_a_at) / Fold change /veh OLFML3 (11715873_a_at) / RFU LOC100653217 /// NTM (11731650_a_at) / Fold change /veh LOC100653217 /// NTM (11731650_a_at) / RFU MAPK11 (11762145_a_at) / Fold change /veh MAPK11 (11762145_a_at) / RFU FIZ1 (11724087_x_at) / Fold change /veh FIZ1 (11724087_x_at) / RFU OASL (11726364_x_at) / Fold change /veh OASL (11726364_x_at) / RFU SOX15 (11748057_x_at) / Fold change /veh SOX15 (11748057_x_at) / RFU CD79A (11719716_a_at) / Fold change /veh CD79A (11719716_a_at) / RFU HIST1H1D (11736915_at) / Fold change /veh HIST1H1D (11736915_at) / RFU CASKIN2 (11723855_a_at) / Fold change /veh CASKIN2 (11723855_a_at) / RFU LOC730098 (11760151_x_at) / Fold change /veh LOC730098 (11760151_x_at) / RFU OR4N2 (11742367_at) / Fold change /veh OR4N2 (11742367_at) / RFU PRRT2 (11749266_a_at) / Fold change /veh PRRT2 (11749266_a_at) / RFU SNX32 (11753110_a_at) / Fold change /veh SNX32 (11753110_a_at) / RFU CDHR5 (11726645_a_at) / Fold change /veh CDHR5 (11726645_a_at) / RFU RCAN1 (11760418_a_at) / Fold change /veh RCAN1 (11760418_a_at) / RFU FAM167A (11723789_a_at) / Fold change /veh FAM167A (11723789_a_at) / RFU FAM26E (11764081_at) / Fold change /veh FAM26E (11764081_at) / RFU ISYNA1 (11749810_s_at) / Fold change /veh ISYNA1 (11749810_s_at) / RFU ACY1 (11761880_at) / Fold change /veh ACY1 (11761880_at) / RFU 11764098_at / Fold change /veh 11764098_at / RFU SAMD14 (11745864_x_at) / Fold change /veh SAMD14 (11745864_x_at) / RFU NPB (11741838_a_at) / Fold change /veh NPB (11741838_a_at) / RFU TMPRSS6 (11731388_a_at) / Fold change /veh TMPRSS6 (11731388_a_at) / RFU KRTAP10-2 (11738614_at) / Fold change /veh KRTAP10-2 (11738614_at) / RFU ARHGAP8 /// PRR5-ARHGAP8 (11727945_x_at) / Fold change /veh ARHGAP8 /// PRR5-ARHGAP8 (11727945_x_at) / RFU KRTAP5-7 /// NADSYN1 (11734609_at) / Fold change /veh KRTAP5-7 /// NADSYN1 (11734609_at) / RFU RASL12 (11751679_a_at) / Fold change /veh RASL12 (11751679_a_at) / RFU CDKN2B (11736163_a_at) / Fold change /veh CDKN2B (11736163_a_at) / RFU PRF1 (11729649_at) / Fold change /veh PRF1 (11729649_at) / RFU, ZNF638 /// ZNF638-IT1 / Fold change vs veh, ZNF638 /// ZNF638-IT1 / RFU, PANK3 / Fold change vs veh, PANK3 / RFU, SH3YL1 / Fold change vs veh, SH3YL1 / RFU, ZEB2 / Fold change vs veh, ZEB2 / RFU, NRIP1 / Fold change vs veh, NRIP1 / RFU, PTTG1IP / Fold change vs veh, PTTG1IP / RFU, CAPN2 / Fold change vs veh, CAPN2 / RFU, MED14 / Fold change vs veh, MED14 / RFU, SNORA58 / Fold change vs veh, SNORA58 / RFU, C1orf63 / Fold change vs veh, C1orf63 / RFU, LRRFIP1 / Fold change vs veh, LRRFIP1 / RFU, NDUFAF7 / Fold change vs veh, NDUFAF7 / RFU, SLC12A2 / Fold change vs veh, SLC12A2 / RFU, IBTK / Fold change vs veh, IBTK / RFU, ESF1 / Fold change vs veh, ESF1 / Fold change vs veh, TMEM50B / RFU, TAOK1 / Fold change vs veh, TAOK1 / RFU, ACBD3 / Fold change vs veh, ACBD3 / RFU, TMA16 / Fold change vs veh, TMA16 / RFU, RWDD3 / Fold change vs veh, RWDD3 / RFU, BCAT1 / Fold change vs veh, BCAT1 / RFU, EDEM3 / Fold change vs veh, EDEM3 / RFU, TMEM33 / Fold change vs veh, TMEM33 / RFU, WDR75 / Fold change vs veh, WDR75 / RFU, AHCTF1 / Fold change vs veh, AHCTF1 / RFU, TFRC / Fold change vs veh, TFRC / RFU, ZDHHC17 / Fold change vs veh, ZDHHC17 / RFU, NOM1 / Fold change vs veh, NOM1 / RFU, ARL8B / Fold change vs veh, ARL8B / RFU, ZBTB11 / Fold change vs veh, ZBTB11 / RFU, TAMM41 / Fold change vs veh, TAMM41 / RFU, KIAA1704 /// LOC100996395 / Fold change vs veh, KIAA1704 /// LOC100996395 / RFU, ING1 / Fold change vs veh, ING1 / RFU, TRMT61B / Fold change vs veh, TRMT61B / RFU, FUBP3 / Fold change vs veh, FUBP3 / RFU, TP53 / Fold change vs veh, TP53 / RFU, TNKS2 / Fold change vs veh, TNKS2 / RFU, ZFP14 / Fold change vs veh, ZFP14 / RFU, ACTR2 / Fold change vs veh, ACTR2 / RFU, PPP3R1 / Fold change vs veh, PPP3R1 / RFU, PIK3R1 / Fold change vs veh, PIK3R1 / RFU, HNRNPA1 / Fold change vs veh, HNRNPA1 / RFU, RNF170 / Fold change vs veh, RNF170 / RFU, ZNF28 / Fold change vs veh, ZNF28 / RFU, RNGTT / Fold change vs veh, RNGTT / RFU, OGT / Fold change vs veh, OGT / RFU, BRD1 / Fold change vs veh, BRD1 / RFU, MARS / Fold change vs veh, MARS / RFU, ZNF655 / Fold change vs veh, ZNF655 / RFU, FAHD1 / Fold change vs veh, FAHD1 / RFU, BDP1 / Fold change vs veh, BDP1 / RFU, LRRCC1 / Fold change vs veh, LRRCC1 / RFU, ARID1A / Fold change vs veh, ARID1A / RFU, ZNF146 / Fold change vs veh, ZNF146 / RFU, ZNF330 / Fold change vs veh, ZNF330 / RFU, GPN3 / Fold change vs veh, GPN3 / RFU, C9orf123 / Fold change vs veh, C9orf123 / RFU, N4BP2L2 / Fold change vs veh, N4BP2L2 / RFU, ARFIP1 / Fold change vs veh, ARFIP1 / RFU, FAM179B / Fold change vs veh, FAM179B / RFU, BCL10 / Fold change vs veh, BCL10 / RFU, UHRF1BP1L / Fold change vs veh, UHRF1BP1L / RFU, BET1 / Fold change vs veh, BET1 / RFU, CNOT2 / Fold change vs veh, CNOT2 / RFU, ZNF268 / Fold change vs veh, ZNF268 / Fold change vs veh, ZNF507 / RFU, DGCR2 / Fold change vs veh, DGCR2 / RFU, WDSUB1 / Fold change vs veh, WDSUB1 / Fold change vs veh, HSP90B1 /// MIR3652 / RFU, ADSS / Fold change vs veh, ADSS / RFU, GK / Fold change vs veh, GK / RFU, ZNF148 / Fold change vs veh, ZNF148 / RFU, TAF9 / Fold change vs veh, TAF9 / RFU, SLC1A5 / Fold change vs veh, SLC1A5 / RFU, SLMO2 / Fold change vs veh, SLMO2 / RFU, ABCC4 / Fold change vs veh, ABCC4 / RFU, LOC101060439 /// RAP1B / Fold change vs veh, LOC101060439 /// RAP1B / RFU, RFX7 / Fold change vs veh, RFX7 / RFU, GTPBP10 / Fold change vs veh, GTPBP10 / RFU, CNEP1R1 / Fold change vs veh, CNEP1R1 / RFU, BIVM-ERCC5 /// ERCC5 / Fold change vs veh, BIVM-ERCC5 /// ERCC5 / RFU, ILF3 / Fold change vs veh, ILF3 / RFU 11762660_at / Fold change /veh 11762660_at / RFU VCAN (11757783_s_at) / Fold change /veh VCAN (11757783_s_at) / RFU DDX43 (11728927_at) / Fold change /veh DDX43 (11728927_at) / RFU KRT8 (11758188_x_at) / Fold change /veh KRT8 (11758188_x_at) / RFU NKD1 (11759106_at) / Fold change /veh NKD1 (11759106_at) / RFU SRD5A1 (11742802_a_at) / Fold change /veh SRD5A1 (11742802_a_at) / RFU TPSAB1 /// TPSB2 (11721975_s_at) / Fold change /veh TPSAB1 /// TPSB2 (11721975_s_at) / RFU GSTM3 (11746129_a_at) / Fold change /veh GSTM3 (11746129_a_at) / RFU IL23R (11737362_x_at) / Fold change /veh IL23R (11737362_x_at) / RFU TMEM51 (11727254_a_at) / Fold change /veh TMEM51 (11727254_a_at) / RFU PIWIL2 (11732686_x_at) / Fold change /veh PIWIL2 (11732686_x_at) / RFU ORM1 (11744905_x_at) / Fold change /veh ORM1 (11744905_x_at) / RFU CCDC152 (11743942_at) / Fold change /veh CCDC152 (11743942_at) / RFU ECM1 (11717891_a_at) / Fold change /veh ECM1 (11717891_a_at) / RFU IL23R (11748794_a_at) / Fold change /veh IL23R (11748794_a_at) / RFU TNFAIP8L3 (11732012_x_at) / Fold change /veh TNFAIP8L3 (11732012_x_at) / RFU MBOAT4 (11741988_at) / Fold change /veh MBOAT4 (11741988_at) / RFU 11764193_at / Fold change /veh 11764193_at / RFU TMEM53 (11763286_at) / Fold change /veh TMEM53 (11763286_at) / RFU MAGEB2 (11727129_at) / Fold change /veh MAGEB2 (11727129_at) / RFU TMEM200A (11744735_a_at) / Fold change /veh TMEM200A (11744735_a_at) / RFU CCDC152 (11751479_a_at) / Fold change /veh CCDC152 (11751479_a_at) / RFU FAM211A (11726209_a_at) / Fold change /veh FAM211A (11726209_a_at) / RFU RGS16 (11746705_a_at) / Fold change /veh RGS16 (11746705_a_at) / RFU VCAN (11755009_s_at) / Fold change /veh VCAN (11755009_s_at) / RFU RHOB (11743442_s_at) / Fold change /veh RHOB (11743442_s_at) / RFU RGS16 (11720943_a_at) / Fold change /veh RGS16 (11720943_a_at) / RFU RGS16 (11720944_at) / Fold change /veh RGS16 (11720944_at) / RFU, VPS4B / Fold change vs veh, VPS4B / RFU, CREB1 / Fold change vs veh, CREB1 / RFU, DNAJC13 / Fold change vs veh, DNAJC13 / RFU, GNAQ / Fold change vs veh, GNAQ / RFU, CDK5R1 / Fold change vs veh, CDK5R1 / RFU, ZRANB3 / Fold change vs veh, ZRANB3 / RFU, CUL4A / Fold change vs veh, CUL4A / RFU, CCNY / Fold change vs veh, CCNY / RFU, UFL1 / Fold change vs veh, UFL1 / RFU, COG3 / Fold change vs veh, COG3 / RFU, DIAPH2 / Fold change vs veh, DIAPH2 / RFU, SKA2 / Fold change vs veh, SKA2 / RFU, AFF3 / Fold change vs veh, AFF3 / RFU, LMF1 / Fold change vs veh, LMF1 / RFU, IPO11 / Fold change vs veh, IPO11 / RFU, DFFB / Fold change vs veh, DFFB / RFU, FOXP1 / Fold change vs veh, FOXP1 / RFU, CARD8 / Fold change vs veh, CARD8 / RFU, STRN3 / Fold change vs veh, STRN3 / RFU, ADK / Fold change vs veh, ADK / RFU, RASSF2 / Fold change vs veh, RASSF2 / RFU, WIPF1 / Fold change vs veh, WIPF1 / RFU, LARP1B / Fold change vs veh, LARP1B / RFU, RASA1 / Fold change vs veh, RASA1 / RFU, RB1 / Fold change vs veh, RB1 / RFU, PPFIA1 / Fold change vs veh, PPFIA1 / RFU, MAT2A / Fold change vs veh, MAT2A / RFU, CCT5 / Fold change vs veh, CCT5 / RFU, WDR92 / Fold change vs veh, WDR92 / RFU, CUX1 / Fold change vs veh, CUX1 / RFU, TTC7A / Fold change vs veh, TTC7A / RFU, TMEM135 / Fold change vs veh, TMEM135 / RFU, DEPTOR / Fold change vs veh, DEPTOR / RFU, CPM / Fold change vs veh, CPM / RFU, DNAJB6 / Fold change vs veh, DNAJB6 / RFU, CACNA2D3 / Fold change vs veh, CACNA2D3 / RFU, DTX4 / Fold change vs veh, DTX4 / RFU, TFCP2 / Fold change vs veh, TFCP2 / RFU, GMCL1 /// GMCL1P1 / Fold change vs veh, GMCL1 /// GMCL1P1 / RFU, AEBP2 / Fold change vs veh, AEBP2 / RFU, SNHG1 /// SNORD22 /// SNORD25 /// SNORD26 /// SNORD27 /// SNORD28 /// SNORD29 /// SNORD31 / Fold change vs veh, SNHG1 /// SNORD22 /// SNORD25 /// SNORD26 /// SNORD27 /// SNORD28 /// SNORD29 /// SNORD31 / Fold change (Aza/veh), C12orf56 (ProbeSet 11735607_a_at) / Fold change (ACY-1035/veh), C12orf56 (ProbeSet 11735607_a_at) / Fold change (Aza/veh), FGFR1OP (ProbeSet 11751329_s_at) / Fold change (ACY-1035/veh), FGFR1OP (ProbeSet 11751329_s_at) / Fold change (Aza/veh), VPS36 (ProbeSet 11739960_a_at) / Fold change (ACY-1035/veh), VPS36 (ProbeSet 11739960_a_at) / RFU SYPL1 (11715823_x_at) / Fold change /veh SYPL1 (11715823_x_at) / RFU IGFBP7 (11715501_s_at) / Fold change /veh IGFBP7 (11715501_s_at) / RFU REEP3 (11722064_at) / Fold change /veh REEP3 (11722064_at) / RFU IGLL1 (11728026_x_at) / Fold change /veh IGLL1 (11728026_x_at): dose or concentration left out as unconfirmed
Settings: ProbeSet 11723141_at; LIST B

Question: With Nc1ncn([C@@H]2O[C@H](CO)[C@@H](O)[C@H]2O)c(=O)n1 [azacitidine] as the molecule, how does the “RFU, ZBTB11” value read?
Answer: The value was 125.26 RFU.

Reference: PMC5218480 (PLoS ONE, 2017)
